Biological target: T1, Glf (Zymomonas mobilis sugar / glucose facilitator) (Zymomonas mobilis, UniProt P21906)
T1 construct: full-length glf coding region with 20 bp native flanks in pTrc99A (pGlfwt), no tag told; expressed in E. coli W derivatives EG29 and EG51A lacking glucose and xylose uptake
T1 sequence (P21906 1-473): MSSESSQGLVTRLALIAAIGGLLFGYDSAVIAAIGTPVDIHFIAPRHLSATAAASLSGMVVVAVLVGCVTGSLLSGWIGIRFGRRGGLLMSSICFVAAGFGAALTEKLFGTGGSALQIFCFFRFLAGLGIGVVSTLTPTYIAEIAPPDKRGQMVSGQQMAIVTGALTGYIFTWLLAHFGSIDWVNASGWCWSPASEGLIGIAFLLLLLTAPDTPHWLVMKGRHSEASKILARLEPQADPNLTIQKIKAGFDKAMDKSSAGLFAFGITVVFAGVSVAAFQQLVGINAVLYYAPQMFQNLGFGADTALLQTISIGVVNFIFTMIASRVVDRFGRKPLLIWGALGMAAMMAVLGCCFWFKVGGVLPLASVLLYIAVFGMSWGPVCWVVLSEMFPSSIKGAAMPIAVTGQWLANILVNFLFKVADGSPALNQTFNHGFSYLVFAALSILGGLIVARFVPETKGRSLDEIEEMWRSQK
Experiment: xylose utilization in fermentation of transport-deficient E. coli with Glf vs empty vector (HPLC)
Assay type: cell-based, Escherichia coli
Conditions: E. coli EG51A (EG29 glk-), 34 g/l xylose alone, pH 7.0, 37 °C, 10 µM IPTG; facilitated uptake; whole-cell read-out

OC1OC[C@@H](O)[C@H](O)[C@H]1O (stereo partly drawn) [D-xylose]
xylose utilization in fermentation of transport-deficient E. coli with Glf vs em: EG51A transformed with pGlfwt showed much improved xylose utilization compared to EG51A with empty vector
